Data published in US6290959A (New York University, dated 2001).

B1: bovine uroplakin II (mature) (other)
chain: ELVSVVDSGSGFTVTRLSAYQVTNLAPGTKYYISYLVTKGASTESSREIPMSTFPRRKAESIGLAMARTGGMVVITVLLSVAMFLLVLGLIIALALGARK

Assays:
[1] = system: type 1-fimbriated E. coli; test: In vitro bacterial adherence assay: binding of 35S-labelled E. coli to immobilized bovine urothelial plaques (asymmetric unit membranes); conditions: 2x10^5 cpm; for effect of sugars on bacterial binding to bovine asymmetrical unit membranes: E. coli SH48 (type 1 only), preincubated with sugar, 0.2 μg immobilized bovine AUM
Description: Purified asymmetric unit membranes were suspended in PBS and incubated in 96-well polystyrene microtiter plates at room temperature for 30 minutes, then at 4° C. for 16 hours. All subsequent steps were carried out at room temperature. After being washed three times with PBS for two hours, the immobilized asymmetric membrane units were incubated with 2% BSA in PBS for two hours, and ^35 S-labelled bacteria were incubated in 2% BSA and 0.1% NaN3 for two hours. The wells were then washed four times with PBS, and the bound bacteria were dissolved in 1% SDS for 30 minutes and quantitated by scintillation counting. All binding studies were performed in triplicate.
Purified bovine urothelial plaques, consisting of asymmetric unit membranes that cover 70-80% of the urothelial apical surface, were immobilized on microtiter wells (0.2 microgram per well). The unoccupied binding sites were blocked with 3% BSA in PBS. BSA was used to coat the control wells. The E. coli strains used were J96, which express type 1 fimbriae as well as P fimbriae carrying the G-1 and G-2 adhesins; SH48, which expresses type 1 fimbriae only; HU849, which expresses P fimbriae carrying G-1 adhesin; IA2, which expresses P fimbriae carrying G-adhesins; and nonfimbriated P678-54.
^35 [S]methionine-labelled bacteria were added to each well (2×10^5 cpm in 10^7 bacteria suspended in PBS). After incubation at 25° C. for two hours, the wells were washed with PBS and the radioactivities of the bound bacteria, dissolved in 1% SDS, were counted. Each value represents the means of triplicates bracketed by the standard deviation (±15%). It should be noted that only the type 1-fimbriated J96 and SH48 strains, but not the P-expressing HU849 and IA2 or the nonfimbriated P678-54, adhered to the asymmetric unit membranes.
In FIG. 1B, the relative contribution of type 1 and P fimbriae in the binding of J96 to asymmetric unit membranes is shown. ^35 S-labelled J96 (2×10^5 cpm) were incubated with immobilized asymmetric unit membranes in the absence or the presence of 2% D-mannose.
To test the effects of sugars on the binding of type-1 fimbriated E. coli to bovine urothelial plaques, 2×10^5 cpm of radiolabeled E. coli (SH48) were preincubated with D-mannose (Man), methyl-α-D-mannopyranoside(MMP), or D-galactose (Gal) before they were incubated with 0.2 μg of immobilized bovine asymmetrical unit membranes.

[2] = system: type 1-fimbriated bacteria; test: Bacterial (gel) overlay assay: radiolabelled bacteria on SDS/PAGE-resolved uroplakins on nitrocellulose; type: binding, E. coli; conditions: bovine uroplakins on nitrocellulose, autoradiography
Description: Asymmetric unit membrane proteins were resolved by SDS/PAGE (17% acrylamide; acrylamide/bisacrylamide=10:1) and electrophoretically transferred to nitrocellulose. After a brief incubation in 3% BSA in PBS to block the unoccupied sites, the nitrocellulose sheet was incubated with ^35 [S]methionine-labelled bacteria in 2% BSA and 0.1% NaN3. After three washings in PBS, the nitrocellulose was air-dried and autoradiographed.
To determine which of the asymmetric membrane proteins are responsible for this binding, a gel overlay assay was performed. Uroplakins were resolved by SDS/PAGE (cf. FIGS. 5A and 5B), transferred to nitrocellulose, and incubated with radiolabelled bacteria. […] The two major bacterial binding proteins were identified as the two closely related uroplakin proteins, i.e., the 27 kDa-uroplakin Ia and the 28 kDa-uroplakin Ib, according to their sizes and immunoreactivities (FIG. 5B, lanes 1 and 2). […] To determine whether the carbohydrate moieties of uroplakin I proteins were responsible for the binding of the type 1 fimbriae, as one might expect from the inhibitory effects of mannose (cf. FIG. 4), the effects of deglycosylation were tested, results shown in FIGS. 5D and E. Endo H removed about […] of sugars from uroplakin I proteins (cf. FIG. 5D, lanes 2 and 5). […]

[3] = target: E. coli strain SH48, expressing type 1 fimbriae only (FimH adhesin) (E. coli, UniProt P08191); test: overlay of radiolabelled bacteria on SDS/PAGE-resolved uroplakins on nitrocellulose

Row | Molecule | effect of sugars on bacterial binding to bovine asymmetrical unit membranes [1] | inhibition of binding of type 1-fimbriated bacteria to uroplakin protein bands [2] | binding of J96 to asymmetric unit membranes in the presence of mannose ([1]; E. coli strain J96 (type 1 and P fimbriae), 2% D-mannose, immobilized bovine AUM) | binding result [3]
1 | CO[C@H]1O[C@H](CO)[C@@H](O)[C@H](O)[C@@H]1O [methyl-α-D-mannopyranoside] | greatly inhibited |  |  | 
2 | O=C[C@@H](O)[C@@H](O)[C@H](O)[C@H](O)CO [D-mannose] | greatly inhibited | inhibited | completely blocked | 
3 | O=C[C@H](O)[C@@H](O)[C@@H](O)[C@H](O)CO [D-galactose] | not | not |  | 
4 | B1 |  |  |  | no binding
